Measured values as given in patent US6492330B1, “Antiangiogenic drugs” (National Institute of Immunology, priority 1996, dated 2002).
Non-standard residues stand in square brackets, D forms with d. No end group written: not given here. Deg = CCC(N)(CC)C(=O)O; Aib = CC(C)(N)C(=O)O

How the values were obtained:
Assay type in all cases: cell-based
ECV304 = assay: Tube-like-structure (TLS) formation on Matrigel; conditions: 24 hours
Experimental: Matrigel (350 ul) was placed into each well of a 24-well culture plate at 4° C. and was allowed to polymerize by incubation at 37° C. for 30 min. ECV304 (1.5×10^4) were seeded on the Matrigel in 500 ul DMEM supplemented with 10% FBS. MuJ-7 at four different concentrations of 0.25×, 0.5×, ×, & 5.0× were added and. the plate incubated at 37° C. for 24 hour. “×” denotes normal concentration of MuJ-7 where molar concentration of individual peptides was 10^−8 M for VIP2, BOM1, SP1, VIP3 and SOM2 and 10^−7 M for VIP1 and 10^−9 M for SOM1. […] Percent inhibition in tube area was determined with reference to untreated cells.
Matrigel (350 ul) was placed into each well of a 24-well culture plate at 4° C. and was allowed to polymerize by incubation at 37° C. for 30 min. ECV304 (1.5×10^4) were seeded on the Matrigel in 500 ul DMEM supplemented with 10% FBS. […] Percent inhibition in tube length was determined with reference to untreated cells.
Matrigel (350 ul) was placed into each well of a 24-well culture plate at 4° C. and was allowed to polymerize by incubation at 37° C. for 30 min. ECV304 (1.5×10^4) were seeded on the Matrigel in 500 ul DMEM supplemented with 10% FBS. Individual peptides of the composition MuJ-7 at three different concentrations each of N/10, N, and 10N were added and the plate incubated at 37° C. for 24 hours. […] Percent inhibition in tube length was determined with reference to Control. Similarly, three different concentrations of N/10, N, and 10N of MuJ-7 were added to the well and the plate incubated at 37° C. for 24 hours. Percent inhibition in tube length was determined with reference to Control as described previously (Table 10).

[1] = tested on: endothelial cells ECV.304; assay: Migration assay across 8 μm polycarbonate filter transwell inserts; conditions: for PERCENT INHIBITION MIGRATION: 24 hours (Table 4); for Percent inhibition in migration: N = 10^−8 M for VIP2, BOM1, SP1, VIP3, SOM2, 10^−7M for VIP1, 10^−9M for SOM1, 24 hours
Experimental: Polycarbonate filter transwell inserts (24 well size) with 8 μm pores (Nunc, Denmark) were used for the migration assay. ECV304 (10^4 cells/200 ul DMEM containing 0.1% BSA) was added to the upper chamber. The lower chamber contained 600 ul of DMEM with 0.1% BSA. Individual peptides of the composition MuJ-7 at six different concentrations each of N/100, N/10, N, 10N, 100N and 1000N were added directly to the upper well and the plate incubated at 37° C. for 24 hours. The cells migrated to the lower chamber were viewed randomly at five different phase-contrast microscopic fields and the total number of cells counted using Video Pro 32 Image Analysis system. Percent inhibition in migration was determined with reference to the Control. Similarly, […] different concentrations of N/100, N/10, N, 10N, 100N and 1000N of MuJ-7 were added directly to the upper well and the plate incubated at 37° C. for 24 hours. The cells migrated to the lower chamber were counted as described above.
Polycarbonate filter trasnwell inserts (24 well size) with 8 μm pores (Nuno, Denmark) were used for the migration assay. ECV304 (10^4 cells/200 ul DMEM containing 0.1% BSA) was added to the upper chamber. The lower chamber contained 600 ul of DMEM with 0.1% BSA. […] The sequence of each of the peptides added are described above. The cells migrated to the lower chamber were viewed randomly at five different phase-contrast microscopic fields and the total number of cells counted using Video Pro 32 Image Analysis system. Percent inhibition in migration was determined with reference to Control. […]

ECV.304 cells = assay: MTT assay, inhibition of proliferation of endothelial cells ECV.304; conditions: for PERCENT INHIBITION OF PROLIFERATION: 72 hours (Table 2); for Percent Inhibition Proliferation: 72 hours (Table 1)
Experimental: (§1) 150 μl of medium was added to the wells of a 96-well tissue culture plate (Nunc, Denmark) followed by 30 μl of cell suspension. The plate was left in incubator (37° C., 5% CO2) overnight. Each of the seven peptides of the combination MuJ-7 were added at three molar concentrations of 10^−7M, 10^−8M and 10^−9M. 20 μl of MuJ-7 at three concentrations of N/10, N and 10N was added to marked wells of the 96-well plate. The value of N for each of the individual peptides was 10^−8M for VIP2, BOM1, SP1, VIP3, and SOM2 and 10^−7M for VIP1, and 10^−9M for SOM1. Each concentration was plated in triplicate. 20 μl of medium alone was added to control wells while wells without cells served as blanks. A total volume of 200 μl was ensured in each well and the plate was left in an incubator (37° C., 5% CO2). After 72 hours of incubation an MTT assay was performed and percentage inhibition in proliferation of treated cells was calculated with respect to control cells.
150 μl of medium was added to the wells of a 96-well tissue culture plate (Nunc, Denmark) followed by 30 μl of cell suspension. The plate was left in incubator (37° C., 5% CO2) overnight. Novel peptides shown below were incubated with cells at concentration range of 10^−7 to 10^−9 M (except DT71 at concentration range 10^−8 to 10^−10 M). Each concentration was plated in triplicates. 20 μl of medium alone was added to control wells while wells without cells served as blanks. A total volume of 200 μl was ensured in each well and plate was left in incubator (37° C., 5% CO2). After 72 hours of incubation an MTT assay was performed and percentage inhibition in proliferation of treated cells was calculated with respect to control cells.

EaHy.926 = assay: MTT assay, inhibition of proliferation of endothelial cells EaHy.926; conditions: 72 hours
Experimental: as §1

[2] = analog at optimum concentration −8M

Question: Which “INHIBITION OF TUBE LENGTH” value (ECV304; peptide −8M) does the source give for “D-Leu-Met-Tyr-Pro-Thr-Tyr-Deg-Lys-OH ([dL]MYPTY[Deg]K-OH; N-terminus assumed; SMILES CCC(CC)(NC(=O)[C@H](Cc1ccc(O)cc1)NC(=O)[C@@H](NC(=O)[C@@H]1CCCN1C(=O)[C@H](Cc1ccc(O)cc1)NC(=O)[C@H](CCSC)NC(=O)[C@H](N)CC(C)C)[C@@H](C)O)C(=O)N[C@@H](CCCCN)C(=O)O) [DT-19]” here?
Answer: 37.8%

Question: What about the “PERCENT INHIBITION MIGRATION” value [1, 2] of the same substance?
Answer: 80.4%

Question: What about the “PERCENT INHIBITION OF PROLIFERATION” value (ECV.304 cells; ECV304, 10^−7M) of the same substance?
Answer: 11.9%

Question: And the “PERCENT INHIBITION OF PROLIFERATION” value (ECV.304 cells; ECV304, 10^−8M)?
Answer: 7.3%

Question: What about the “PERCENT INHIBITION OF PROLIFERATION” value (ECV.304 cells; ECV304, 10^−9M) of the same substance?
Answer: 21.0%

Question: With “D-Phe-Cys-Tyr-D-Trp-Lys-Thr-Aib-Thr-NH2 (XCYXKTXT; D-amino acids, Aib, C-terminal amide) [DT-71]” as the substance, how does the “INHIBITION OF TUBE LENGTH” value (ECV304; peptide −9M) read?
Answer: 9.9%

Question: And the “PERCENT INHIBITION MIGRATION” value ([1]; analog at optimum concentration −9M)?
Answer: 68.2%

Question: And the “PERCENT INHIBITION OF PROLIFERATION” value (ECV.304 cells; ECV304, 10^−8M)?
Answer: 14.6%

Question: What about the “PERCENT INHIBITION OF PROLIFERATION” value (ECV.304 cells; ECV304, 10^−9M) of the same substance?
Answer: 12.1%

Question: What about the “PERCENT INHIBITION OF PROLIFERATION” value (ECV.304 cells; ECV304, 10^−10M) of the same substance?
Answer: 9.4%

Question: How did the “Percent Inhibition Proliferation” value (EaHy.926; EaHy.926, peptide 10^−7M) turn out when “D-Phe-Cys-Tyr-D-Trp-Om-Thr-Pen-Thr-NH2 [SOM1]” was run?
Answer: 36%

Question: What about the “Percent Inhibition Proliferation” value (EaHy.926; EaHy.926, peptide 10^−8M) of the same substance?
Answer: 36%

Question: And the “Percent Inhibition Proliferation” value (EaHy.926; EaHy.926, peptide 10^−9M)?
Answer: 22%

Question: And the “Percent inhibition in migration” value ([1]; 10N)?
Answer: 88.75%

Question: And the “Percent inhibition in migration” value ([1]; 100N)?
Answer: 73.73%

Question: What about the “Percent inhibition in migration” value ([1]; 1000N) of the same substance?
Answer: 25.00%

Question: And the “Percent inhibition in migration” value ([1]; N/10)?
Answer: 78.50%

Question: What about the “Percent inhibition in migration” value ([1]; N/100) of the same substance?
Answer: 84.27%

Question: What about the “Percent inhibition in migration” value ([1]; N) of the same substance?
Answer: 88.11%

Question: And the “Percent Inhibition Proliferation” value (ECV.304 cells; ECV.304, peptide 10^−7M)?
Answer: 20%

Question: What about the “Percent Inhibition Proliferation” value (ECV.304 cells; ECV.304, peptide 10^−8M) of the same substance?
Answer: 20%

Question: What about the “Percent Inhibition Proliferation” value (ECV.304 cells; ECV.304, peptide 10^−9M) of the same substance?
Answer: 19%

Question: What does the source list for “D-Phe-Gln-Trp-Aib-Val-Gly-His-Ile-NH2 ([dF]QW[Aib]VGHI-NH2; N-terminus assumed; SMILES CC[C@H](C)[C@H](NC(=O)[C@H](Cc1c[nH]cn1)NC(=O)CNC(=O)[C@@H](NC(=O)C(C)(C)NC(=O)[C@H](Cc1c[nH]c2ccccc12)NC(=O)[C@H](CCC(N)=O)NC(=O)[C@H](N)Cc1ccccc1)C(C)C)C(N)=O) [DT-26]”?
Answer: INHIBITION OF TUBE LENGTH (ECV304; peptide −8M): 0%; PERCENT INHIBITION MIGRATION [1, 2]: 0%; PERCENT INHIBITION OF PROLIFERATION (ECV.304 cells; ECV304, 10^−7M): 0%; PERCENT INHIBITION OF PROLIFERATION (ECV.304 cells; ECV304, 10^−8M): 0%; PERCENT INHIBITION OF PROLIFERATION (ECV.304 cells; ECV304, 10^−9M): 0%

Question: Which results are given for LM[dY]PTY[dL]K-OH [DT-15]?
Answer: INHIBITION OF TUBE LENGTH (ECV304; peptide −8M): 0%; PERCENT INHIBITION MIGRATION [1, 2]: 73.2%; PERCENT INHIBITION OF PROLIFERATION (ECV.304 cells; ECV304, 10^−7M): 20.4%; PERCENT INHIBITION OF PROLIFERATION (ECV.304 cells; ECV304, 10^−8M): 13.2%; PERCENT INHIBITION OF PROLIFERATION (ECV.304 cells; ECV304, 10^−9M): 20.0%
